Experimental data reported in patent US4567197A, “1,3-Dioxan-5-ylalkenoic acids” (Imperial Chemical Industries PLC, priority 1982, dated 1986).

Columns and labels:
[1] = tested on: hypertensive effects of the TXA2 mimetic U46619; test: antagonism of the hypertensive effect of U46619 in anaesthetised rats; format: in vivo, rat (Alderley Park strain); details: for period of significant reduction of the hypertensive effects of U46619: oral administration, dose not stated
Procedure: Male rats (Alderley Park strain) are anaesthetised with sodium pentabarbital and blood pressure is monitored at the carotid artery. The TXA2 mimetic agent known as U46619 (e.g. R. L. Jones, et alia, in "Chemistry, Biochemistry and Pharmacological Activity of Prostanoids" eds. S. M. Roberts and F. Scheinmann, at p.211; Pergamon Press, 1979) is administered intravenously via the jugular vein and an ED50 (dose necessary to produce 50% of the maximum hypertensive effect) is established (n=3). The ED50 for U46619 is approximately 5 μg/kg. A test compound is then administered either intravenously via the jugular vein or orally via a cannula directly into the stomach and the animal challenged with an ED50 dose of U46619, five minutes after dosing with test compound and then successively every ten minutes until the hypertensive effect of U46619 is no longer blocked.

[2] = tested on: bronchoconstriction induced in the Konzett-Rossler guinea-pig model; test: bronchoconstriction test (c), Konzett-Rossler guinea-pig model, induced by U46619; format: in vivo; details: 5 mg./kg. i.v., U46619 1-1.5 μg/kg i.v.
Description: (§1) As stated earlier, the compounds of formula I are antagonists of one or more of the actions of TXA2, for example certain of its actions on blood platelets, the vasculature and/or the lung.
(c) a standard bronchoconstriction test involving measuring the inhibition by a test compound of the bronchoconstriction induced in the Konzett-Rossler guinea-pig model (as modified by Collier and James, Brit. J. Pharmacol., 1967, 30, 283-307) by intravenous administration of the TXA2 mimetic agent, U46619 at 1-1.5 μg/kg.

[3] = tested on: citrated, platelet rich human plasma; test: blood platelet aggregation test (b), induced by arachidonic acid; format: cell-based; details: aggregation induced by sub-maximal arachidonic acid (25-100 μg/ml.)
Procedure: as §1
(b) a standard blood platelet aggregation test based on that described by Born (Nature, 1962, 194, 927-929) and involving measuring the inhibition by a test compound of aggregation of citrated, platelet rich human plasma induced by a sub-maximal concentration (in the range 25-100 μg/ml.) of arachidonic acid; and […]

[4] = tested on: rabbit aortal strip; test: rabbit aortal strip test (a), TXA2 as agonist
Procedure: as §1
(a) The standard rabbit aortal strip model devised by Piper and Vane (Nature, 1969, 223, 29-35) using as agonist a freshly prepared sample of TXA2, generated by addition of arachidonic acid (25 μg. to citrated, platelet rich rabbit plasma (250 μl. ) and allowing the mixture to aggregate fully over 90 seconds before use;

Compound | period of significant reduction of the hypertensive effects of U46619 [1] | also measured
CCC1(CC)OC[C@@H](C/C=C\CCCC(=O)O)[C@@H](c2ccccc2)O1 (relative stereo) [Compound 1, 5(Z)-7-(2,2-diethyl-4-phenyl-1,3-dioxan-cis-5-yl)heptenoic acid] | at least 60 minutes | 
O=C(O)CCC/C=C\C[C@@H]1COC2(CCCCC2)O[C@@H]1c1ccccc1 (relative stereo) [Compound 2, 5(Z)-7-(4'-phenyl-[cyclohexanespiro-2'-1,3-dioxan]-cis-5'-yl)heptenoic acid] | at least 60 minutes | 
CC1(C)OC[C@@H](C/C=C\CCCC(=O)O)[C@@H](c2cccc(F)c2)O1 (relative stereo) [Compound 3] | at least 60 minutes | 
COc1ccccc1[C@H]1OC(C)(C)OC[C@H]1C/C=C\CCCC(=O)O (relative stereo) [Compound 5, 5(Z)-7-[2,2-dimethyl-4-(2-methoxyphenyl)-1,3-dioxan-cis-5-yl]heptenoic acid] | at least 60 minutes | 
O=C(O)CCC/C=C\C[C@@H]1CO[C@H](c2ccccc2Cl)O[C@@H]1c1ccccc1 (relative stereo) [Compound 11] | at least 60 minutes | 
O=C(O)CCC/C=C\C[C@@H]1CO[C@H](c2ccc(Cl)cc2)O[C@@H]1c1ccccc1 (relative stereo) [Compound 13] | at least 60 minutes | 
CC(C)[C@H]1OC[C@@H](C/C=C\CCCC(=O)O)[C@@H](c2ccccc2)O1 (relative stereo) [Compound 20] | at least 60 minutes | 
O=C(O)CCC/C=C\C[C@@H]1CO[C@H](c2ccc3c(c2)OCO3)O[C@@H]1c1ccccc1 (relative stereo) [Compound 21] | at least 60 minutes | 
C[C@H]1OC[C@@H](C/C=C\CCCC(=O)O)[C@@H](c2ccccc2)O1 (relative stereo) [Compound 23, 5(Z)-7-([2,4,5-cis]-2-methyl-4-phenyl-1,3-dioxan-5-yl)heptenoic acid] | at least 60 minutes | 
Cc1ccccc1[C@H]1OC(C)(C)OC[C@H]1C/C=C\CCCC(=O)O (relative stereo) [Compound 24, 5(Z)-7-[2,2-dimethyl-4-(2-methylphenyl)-1,3-dioxan-cis-5-yl]heptenoic acid] | at least 60 minutes | 
CC1(C)OC[C@@H](C/C=C\CCCC(=O)O)[C@@H](c2ccccc2)O1 (relative stereo) [Example 1, 5(Z)-7-(2,2-dimethyl-4-phenyl-1,3-dioxan-cis-5-yl)heptenoic acid] |  | reduction of bronchoconstriction [2]: 90%; IC50 [3]: ~67 µM; pA2 [4]: 6.28
CCC1(CC)OC[C@@H](C/C=C\CCCC(=O)O)[C@@H](c2ccccc2)O1 (single isomer, unassigned) [Example 100, (-)-5(Z)-(2,2-diethyl-4-phenyl-1,3-dioxan-cis-5-yl)heptenoic acid] |  | period of significant reduction (>30%) of the hypertensive effects of U46619 ([1]; oral, 50 mg./kg.): 120 min; reduction of the hypertensive effects of U46619 ([1]; oral, 50 mg./kg., for a period of 120 minutes): > 30%
CCCCC[C@H](O)/C=C/[C@@H]1[C@@H](C/C=C\CCCC(=O)O)[C@H]2CO[C@@H]1C2 [Example U46619, reference compound] |  | ED50 ([1]; Rattus norvegicus, intravenous via jugular vein, n=3, read-out: ED50 (dose necessary to produce 50% of the maximum hypertensive effect)): ~5 µg/kg
